We go through ten compounds from paper PMC12775434, “Ultra-large virtual screening unveils potent agonists of the neuromodulatory orphan receptor GPR139” (Nature Communications, 2025).

pEC50: −log10 of the molar value. Values joined by “and” are separate entries in the source; they are usually repeats but may differ in a detail not shown here. Equal entries are not always repeated.

Experiment [1] concerns the target T1, GPR139 (Homo sapiens, UniProt Q6DWJ6).
T1 sequence (Q6DWJ6 1-353): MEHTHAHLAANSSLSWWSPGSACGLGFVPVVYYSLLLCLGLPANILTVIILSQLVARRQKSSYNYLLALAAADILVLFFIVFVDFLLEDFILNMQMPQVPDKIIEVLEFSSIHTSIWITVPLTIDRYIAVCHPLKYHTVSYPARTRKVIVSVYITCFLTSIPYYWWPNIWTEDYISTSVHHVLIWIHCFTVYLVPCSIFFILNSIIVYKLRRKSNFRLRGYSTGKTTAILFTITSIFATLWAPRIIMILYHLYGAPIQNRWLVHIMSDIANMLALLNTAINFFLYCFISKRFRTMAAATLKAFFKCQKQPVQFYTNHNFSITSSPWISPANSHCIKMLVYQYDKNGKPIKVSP
The experiment can be described thus: Ca2+ mobilization assay, antagonist mode (EC80 800 nM Lundbeck Cmp 1a after 20 min preincubation), GPR139-CHOk1. It counts as cell-based. As for the experimental part: (§1) 30,000 GPR139- or M1R-CHOk1 cells/well were seeded in black clear bottom tissue culture treated 96-well plates (Greiner #655090) and grown for 20–24 h. Cells were washed with HEPES buffer (Hank’s Balanced Salt Solution (HBBS) supplemented with 20 mM HEPES, 1 mM MgCl2, and 1 mM CaCl2; pH 7.4). Cells were loaded with 50 µL of 2 µM Fluo-4 AM dye (ThermoFisher #F14202) in HEPES buffer supplemented with 2.5 mM probenecid and 0.01% Pluronic F-68 (ThermoFisher #24040032) for 1 h at 37 °C. Cells were washed with HEPES buffer. 50 µL HEPES buffer supplemented with 2.5 mM probenecid was added, and the cells were incubated for 10 min at 37 °C before measurement. 50 µL test compounds diluted in HEPES buffer from DMSO stocks (final DMSO concentration of maximally 0.3%) were added automatically after baseline measurements. The intracellular calcium mobilization was measured on a FlexStation 3 Multimode Microplate Reader (Molecular Devices) at 37 °C with filters for excitation of 485 nm and emission of 525 nm.
Our primary compound screening protocol consisted of two subsequent steps that allowed to screen for agonists and antagonists simultaneously. In the first step, the screening compounds were applied at 10 µM to test for agonist activity (agonist mode). Following 20 min incubation with the compounds added in the first step, in the second step, an EC80 concentration (800 nM) of the reference agonist Lundbeck Cmp 1a was applied to test for antagonist activity (antagonist mode). In the agonist mode (first step) response is seen only with compounds having agonist activity (Cmp 1a), but not with non-receptor-binding compounds (Vehicle) or antagonists (NCRW0105-E06) (Supplementary Fig. 14). […] No antagonist compounds were identified in this study.
Background: Calcium flux is commonly read through the fluorescence of an indicator in the cells.

For experiment [2], the target named is T1, GPR139. The experiment in a line: Ca2+ mobilization assay, agonist mode, stable GPR139-CHOk1 cell line. It counts as cell-based. As for the experimental part:
Primary screening and pharmacological characterization of compounds were performed using a CHO-K1 cell line that stably expresses human GPR139 (GPR139-CHOk1). The GPR139-CHOk1 cell line was kindly provided by H. Lundbeck A/S, Denmark[24]. GPR139-CHOk1 cells were grown in Ham’s F-12 Kaighn’s Modification Medium (ThermoFisher #21127030) supplemented with 10% dialyzed fetal bovine serum (US origin, ThermoFisher #26400044), 100 units/mL Penicillin-Streptomycin (ThermoFisher #15140122), and 1 mg/mL Geneticin (ThermoFisher #11811031). […] M1R-CHOk1 cells were purchased from The Missouri S&T cDNA Resource Center (#CEM100TN00). M1R-CHOk1 cells were grown in Ham’s F12 Medium (ThermoFisher #21765029) supplemented with 10% fetal bovine serum (Brazilian origin, ThermoFisher #10270106), 100 units/mL Penicillin-Streptomycin, and 0.25 mg/mL Geneticin. HEK293A cells transiently transfected with GPR139 were used for additional pharmacological assessment of signaling pathways activated by GPR139. HEK239A cells were generously provided by Dr. Asuka Inoue, Tohoku University, Japan. HEK293A cells were grown in Dulbecco’s Modified Eagle Medium (ThermoFisher #31966047) supplemented with 10% dialyzed fetal bovine serum and 100 units/mL Penicillin-Streptomycin. Cell lines were maintained at 37 °C in humidified incubator equilibrated with 5% CO2.
as §1
Our primary compound screening protocol consisted of two subsequent steps that allowed to screen for agonists and antagonists simultaneously. In the first step, the screening compounds were applied at 10 µM to test for agonist activity (agonist mode). Following 20 min incubation with the compounds added in the first step, in the second step, an EC80 concentration (800 nM) of the reference agonist Lundbeck Cmp 1a was applied to test for antagonist activity (antagonist mode).
Pharmacological data and statistical analyses were performed in GraphPad Prism v9–10 (Graphpad Software Inc., San Diego, CA), which are also specifically described in the figure and table legends. The functional assay responses were normalized to buffer (0%) and Lundbeck Cmp 1a or JNJ-63533054 (100%), for Ca^2+ and IP1 experiments in the GPR139-CHOk1 stable cell line or Ca^2+, G protein activation, and arrestin-3 recruitment experiments in the HEK293A cells transiently transfected with GPR139, respectively. Data are from at least three independent experiments, unless stated otherwise. Concentration-response curves were fitted applying non-linear regression using the log (agonist) versus response model with variable slope. ANOVA was applied for comparing results and determining statistical significance.

The mark [3] stands for this setting: individual replicates (Supplementary Figure 4).
The mark [4] stands for this setting: Agonist mode, individual replicates (Supplementary Figure 4).
The mark [5] stands for this setting: individual replicates (Supplementary Figure 1).
The mark [6] stands for this setting: Agonist mode, individual replicates (Supplementary Figure 1).

On to `COc1ccc2cc(-c3nc(CC(=O)NC(C)c4ccccc4)no3)sc2c1` (centres unmarked) [Compound 1.36, COC1=CC2=C(C=C(C3=NC(CC(NC(C4=CC=CC=C4)C)=O)=NO3)S2)C=C1], for which the “Ca2+ signal (% of Cmp 1a)” value was 52 % of Cmp 1a and 69 % of Cmp 1a and 54 % of Cmp 1a in experiment [1] (setting [3]); 0 % of Cmp 1a and -15 % of Cmp 1a and -10 % of Cmp 1a in experiment [2] (setting [4]). Besides, in experiment [2] (10 µM), the “activation of GPR139 in analog screen” value is recorded as “All analogs, with the exception of compound 1.36, activated GPR139”. Besides, in experiment [2] (Ca2+ mobilization), the “change in potency with larger substituents on the thiophene ring” value was “three-fold reduction to a complete loss of activity”.

Consider `COc1ccc(OCc2nc(CC(=O)NC(C)c3ccccc3)no2)cc1` (centres unmarked) [Compound 1.37, COC1=CC=C(OCC2=NC(CC(NC(C3=CC=CC=C3)C)=O)=NO2)C=C1], for which the “Ca2+ signal (% of Cmp 1a)” value in experiment [1] (setting [3]) was 36 % of Cmp 1a and 40 % of Cmp 1a and 37 % of Cmp 1a; in experiment [2] (setting [4]), 65 % of Cmp 1a and 55 % of Cmp 1a and 21 % of Cmp 1a.

One may read the pEC50 as the negative decadic logarithm of the EC50, by convention in mol/L. Take `CC(NC(=O)Cc1coc(-c2cccs2)n1)c1ccccc1` (centres unmarked) [Compound 1.44, CC(NC(=O)CC1=COC(=N1)C2=CC=CS2)C=3C=CC=CC3]: the “Ca2+ signal (% of Cmp 1a)” value in experiment [1] (setting [3]) is -8 % of Cmp 1a and 68 % of Cmp 1a and 69 % of Cmp 1a; in experiment [2] (setting [4]), 88 % of Cmp 1a and 15 % of Cmp 1a and 25 % of Cmp 1a. Further, the “calcium mobilization response relative to Lundbeck Cmp 1a” value in experiment [2] (10 µM compound, agonist mode) was determined as 43%. For the same compound, the “fold decrease in potency on substitution of the central oxadiazole ring” value in experiment [2] (Ca2+ mobilization) is on record as > 50 fold. Further, the pEC50 in experiment [2] (GPR139-CHOk1, read-out: EC50, Ca2+ mobilization) is < 5.00.

Take `Cc1nn(C)c2nc(C(=O)N[C@@H](C)c3ccccc3)ccc12` [Compound 15, C[C@H](NC(=O)C=1C=CC=2C(C)=NN(C)C2N1)C=3C=CC=CC3]: the “Ca2+ signal (% of Cmp 1a)” value in experiment [1] (setting [5]) is 88.3523 % of Cmp 1a and 83.7132 % of Cmp 1a and 99.0735 % of Cmp 1a; in experiment [2] (setting [6]), -11 % of Cmp 1a and 0.224 % of Cmp 1a and 7.56 % of Cmp 1a.

Turning to `C[C@H](NC(=O)c1ccc(=O)n(-c2ccc(F)cc2)n1)c1ccccc1` [Compound 16, C[C@H](NC(=O)C=1C=CC(=O)N(N1)C=2C=CC(F)=CC2)C=3C=CC=CC3], the “Ca2+ signal (% of Cmp 1a)” value in experiment [1] (setting [5]) is 74.1067 % of Cmp 1a and 36.0111 % of Cmp 1a and 92.3974 % of Cmp 1a; in experiment [2] (setting [6]), -6 % of Cmp 1a and 42 % of Cmp 1a and 24 % of Cmp 1a.

Regarding `Cc1nnnn1C(=Cc1ccccc1)C(=O)N[C@@H](C)c1ccccc1` [Compound 17, C[C@H](NC(=O)C(=CC=1C=CC=CC1)N2N=NN=C2C)C=3C=CC=CC3], the “Ca2+ signal (% of Cmp 1a)” value in experiment [1] (setting [5]) is 61.7351 % of Cmp 1a and 85.7644 % of Cmp 1a and 78.6356 % of Cmp 1a; in experiment [2] (setting [6]), 4.36 % of Cmp 1a and -2.84 % of Cmp 1a and 2.54 % of Cmp 1a.

On to `C[C@H](NC(=O)c1cn2cccnc2n1)c1ccccc1` [Compound 18, C[C@H](NC(=O)C1=CN2C=CC=NC2=N1)C=3C=CC=CC3], for which the “Ca2+ signal (% of Cmp 1a)” value in experiment [1] (setting [5]) is 80.6397 % of Cmp 1a and 68.0976 % of Cmp 1a and 80.5455 % of Cmp 1a; in experiment [2] (setting [6]), 2.28 % of Cmp 1a and 13 % of Cmp 1a and 21 % of Cmp 1a.

Consider `CC(O)CN(Cc1ccccc1)C(=O)NCc1ccc(Cl)o1` (centres unmarked) [Compound 19, CC(O)CN(CC=1C=CC=CC1)C(=O)NCC2=CC=C(Cl)O2], for which the “Ca2+ signal (% of Cmp 1a)” value is 78.3598 % of Cmp 1a and 79.4126 % of Cmp 1a and 77.319 % of Cmp 1a in experiment [1] (setting [5]); 4 % of Cmp 1a and 5 % of Cmp 1a and 6.65 % of Cmp 1a in experiment [2] (setting [6]); 4 % of Cmp 1a and 5 % of Cmp 1a and 6.65 % of Cmp 1a in experiment [2] (primary screen, 10 µM compound, agonist mode, three columns = independent experiments).

On to `CC(C)(NC(=O)Nc1ccccc1)C(=O)Nc1cnc2ccccc2c1` [Compound 20, CC(C)(NC(=O)NC=1C=CC=CC1)C(=O)NC=2C=NC=3C=CC=CC3C2], for which the “Ca2+ signal (% of Cmp 1a)” value in experiment [1] (setting [5]) was 73.2682 % of Cmp 1a and 77.4411 % of Cmp 1a and 81.0233 % of Cmp 1a; in experiment [2] (setting [6]), 2.84 % of Cmp 1a and -2.82 % of Cmp 1a and 13 % of Cmp 1a.

In the case of `Cc1ccc(OCC(=O)Nc2ccc3c(c2)nc(C)n3C)cc1` [Compound 21, CC1=NC=2C=C(NC(=O)COC=3C=CC(C)=CC3)C=CC2N1C], the “Ca2+ signal (% of Cmp 1a)” value was 67.0268 % of Cmp 1a and 92.847 % of Cmp 1a and 77.1923 % of Cmp 1a in experiment [1] (setting [5]); 1.09 % of Cmp 1a and -7 % of Cmp 1a and -8 % of Cmp 1a in experiment [2] (setting [6]).
